ChEMBL document CHEMBL2331362, “Identification of N-acyl 4-(5-pyrimidine-2,4-dionyl)phenylalanine derivatives and their orally active prodrug esters as dual-acting alpha4-beta1 and alpha4-beta7 receptor antagonists” (Bioorg Med Chem Lett, 2013)
pIC50: −log10 of the molar value.

Columns and labels:
[1] = Apparent permeability across human Caco2 cells; type: ADME, cell-based; conditions: Caco-2
[2] = Oral bioavailability in rat; type: ADME, organism-based; conditions: in vivo
[3] = Distribution coefficient, log D of the compound; type: physicochemical; conditions: octanol/water
Integrin alpha-4/beta-1 [4] = biological target: T1, Integrin alpha-4/beta-1 (Homo sapiens, UniProt P05556+P13612); assay: Inhibition of human VCAM1 binding to integrin alpha4beta1 receptor in human Ramos cells labeled with Calcein AM; type: cell-based
T1 sequence (P05556 whole entry, one chain of several): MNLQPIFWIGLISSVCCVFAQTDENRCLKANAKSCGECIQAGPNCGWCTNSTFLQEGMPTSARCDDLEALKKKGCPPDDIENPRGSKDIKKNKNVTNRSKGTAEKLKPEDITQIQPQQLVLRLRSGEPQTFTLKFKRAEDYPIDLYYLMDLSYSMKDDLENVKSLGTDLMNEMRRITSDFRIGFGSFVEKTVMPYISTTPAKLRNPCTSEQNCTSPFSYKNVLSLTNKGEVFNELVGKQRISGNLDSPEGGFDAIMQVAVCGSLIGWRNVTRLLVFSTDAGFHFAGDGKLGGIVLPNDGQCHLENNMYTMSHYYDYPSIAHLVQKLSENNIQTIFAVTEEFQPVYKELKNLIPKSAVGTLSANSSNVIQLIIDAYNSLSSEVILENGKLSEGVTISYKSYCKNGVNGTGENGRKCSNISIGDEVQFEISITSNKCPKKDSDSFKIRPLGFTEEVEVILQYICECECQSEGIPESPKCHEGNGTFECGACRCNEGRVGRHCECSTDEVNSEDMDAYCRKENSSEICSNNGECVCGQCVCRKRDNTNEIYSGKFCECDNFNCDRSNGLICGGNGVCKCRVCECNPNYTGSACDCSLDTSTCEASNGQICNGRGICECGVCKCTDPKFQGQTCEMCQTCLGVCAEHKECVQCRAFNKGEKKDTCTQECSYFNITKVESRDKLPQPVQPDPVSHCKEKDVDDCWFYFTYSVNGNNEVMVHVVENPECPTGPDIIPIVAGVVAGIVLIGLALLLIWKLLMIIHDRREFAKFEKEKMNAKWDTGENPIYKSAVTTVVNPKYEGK

Integrin alpha-4/beta-1 [5] = biological target: T1, Integrin alpha-4/beta-1; assay: Inhibition of human VCAM1 binding to integrin alpha4beta1 receptor in human Ramos cells labeled with Calcein AM relative to (S)-2-(2-chloro-6-methylbenzamido)-3-(4-(2,6-dichlorobenzamido)phenyl)propanoic acid; type: cell-based
Integrin alpha-4/beta-7 = biological target: T2, Integrin alpha-4/beta-7 (Homo sapiens, UniProt P13612+P26010); assay: Inhibition of human MAdCAM1 binding to integrin alpha4beta7 receptor in human RPMI 8866 cells labeled with Calcein AM; type: cell-based
T2 sequence (P13612 whole entry): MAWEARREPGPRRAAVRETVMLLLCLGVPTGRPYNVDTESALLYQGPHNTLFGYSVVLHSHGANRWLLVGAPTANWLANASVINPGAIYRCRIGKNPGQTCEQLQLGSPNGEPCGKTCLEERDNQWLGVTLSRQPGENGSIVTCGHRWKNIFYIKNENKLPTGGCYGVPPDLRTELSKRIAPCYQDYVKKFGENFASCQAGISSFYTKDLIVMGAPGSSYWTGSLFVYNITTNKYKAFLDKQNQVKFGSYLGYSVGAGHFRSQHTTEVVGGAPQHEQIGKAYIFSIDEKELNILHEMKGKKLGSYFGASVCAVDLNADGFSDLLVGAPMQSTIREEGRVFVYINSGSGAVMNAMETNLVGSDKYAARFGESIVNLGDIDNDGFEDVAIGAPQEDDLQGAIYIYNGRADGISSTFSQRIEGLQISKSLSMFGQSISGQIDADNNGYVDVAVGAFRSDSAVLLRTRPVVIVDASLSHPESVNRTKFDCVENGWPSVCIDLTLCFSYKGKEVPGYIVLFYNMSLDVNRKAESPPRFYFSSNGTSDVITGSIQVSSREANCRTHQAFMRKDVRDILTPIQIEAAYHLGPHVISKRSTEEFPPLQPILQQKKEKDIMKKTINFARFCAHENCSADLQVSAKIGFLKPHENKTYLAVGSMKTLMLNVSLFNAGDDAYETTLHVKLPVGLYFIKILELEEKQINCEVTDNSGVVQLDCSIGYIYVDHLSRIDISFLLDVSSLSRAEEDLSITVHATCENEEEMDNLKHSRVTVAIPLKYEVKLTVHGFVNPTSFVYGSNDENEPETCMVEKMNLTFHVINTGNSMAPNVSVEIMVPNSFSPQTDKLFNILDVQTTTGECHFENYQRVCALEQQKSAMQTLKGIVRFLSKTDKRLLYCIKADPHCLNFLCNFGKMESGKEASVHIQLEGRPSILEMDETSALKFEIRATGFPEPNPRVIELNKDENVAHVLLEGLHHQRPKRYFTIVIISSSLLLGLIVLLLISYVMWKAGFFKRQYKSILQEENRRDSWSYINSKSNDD
T2 sequence (P26010 whole entry): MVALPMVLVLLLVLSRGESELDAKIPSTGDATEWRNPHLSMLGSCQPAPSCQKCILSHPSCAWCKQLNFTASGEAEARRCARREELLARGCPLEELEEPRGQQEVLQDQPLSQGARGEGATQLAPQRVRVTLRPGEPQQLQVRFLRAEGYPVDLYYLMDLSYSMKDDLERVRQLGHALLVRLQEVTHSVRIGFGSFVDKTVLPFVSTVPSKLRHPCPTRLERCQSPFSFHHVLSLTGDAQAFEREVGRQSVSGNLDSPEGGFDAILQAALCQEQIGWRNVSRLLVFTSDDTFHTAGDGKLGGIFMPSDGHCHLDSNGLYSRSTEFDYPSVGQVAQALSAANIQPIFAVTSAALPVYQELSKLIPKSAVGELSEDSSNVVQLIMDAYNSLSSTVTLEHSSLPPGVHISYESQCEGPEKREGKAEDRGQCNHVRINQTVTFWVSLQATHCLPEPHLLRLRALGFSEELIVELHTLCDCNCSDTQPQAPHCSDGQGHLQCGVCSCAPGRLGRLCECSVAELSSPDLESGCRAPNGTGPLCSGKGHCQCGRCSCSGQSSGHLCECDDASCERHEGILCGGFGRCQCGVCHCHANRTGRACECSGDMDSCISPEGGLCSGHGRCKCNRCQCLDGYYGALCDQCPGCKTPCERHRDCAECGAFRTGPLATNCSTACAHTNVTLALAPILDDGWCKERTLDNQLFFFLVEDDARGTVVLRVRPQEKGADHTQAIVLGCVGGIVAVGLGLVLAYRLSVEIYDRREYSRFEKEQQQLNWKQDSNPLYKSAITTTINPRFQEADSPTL

[6] = biological target: Integrin alpha-4/beta-7 (Homo sapiens) (UniProt P13612+P26010); assay: Inhibition of human MAdCAM1 binding to integrin alpha4beta7 receptor in human RPMI 8866 cells labeled with Calcein AM relative to (S)-2-(2-chloro-6-methylbenzamido)-3-(4-(2,6-dichlorobenzamido)phenyl)propanoic acid; type: cell-based

| Papp [1] [×10⁻⁶ cm/s] | bioavailability [2] [%] | logD [3] | pIC50 (Integrin alpha-4/beta-1 [4]) | Ratio IC50 (Integrin alpha-4/beta-1 [5]) | pIC50 (Integrin alpha-4/beta-7) | Ratio IC50 [6] | Compound |
| --- | --- | --- | --- | --- | --- | --- | --- |
| 34.7 | 25 | 2.24 | – | – | – | – | CCOC(=O)[C@H](Cc1ccc(-c2c(C)n(C)c(=O)n(C)c2=O)cc1)NC(=O)c1c(C)cccc1Cl |
| – | – | – | 7.19 | 0.8 | – | – | COCCC1(C(=O)N[C@@H](Cc2ccc(-c3cn(C)c(=O)n(C)c3=O)c(C)c2)C(=O)O)CCCC1 |
| 1.33 | 1.7 | -2.02 | 8.10 | 6.3 | 7.46 | 16 | Cc1c(-c2ccc(C[C@H](NC(=O)c3c(Cl)cccc3Cl)C(=O)O)cc2)c(=O)n(C)c(=O)n1C |
| – | – | – | 6.71 | 0.46 | 6.66 | 1.3 | Cn1c(C(F)(F)F)c(-c2ccc(C[C@H](NC(=O)c3c(Cl)cccc3Cl)C(=O)O)cc2)c(=O)n(C)c1=O |
| – | – | – | 7.25 | 0.68 | 6.66 | 1.9 | Cc1cc(C[C@H](NC(=O)c2c(Cl)cccc2Cl)C(=O)O)ccc1-c1cn(C)c(=O)n(C)c1=O |
| – | – | – | 8.00 | 1.1 | 6.77 | 3.6 | Cc1cc(C[C@H](NC(=O)c2c(Cl)cccc2Cl)C(=O)O)ccc1-c1c(C)n(C)c(=O)n(C)c1=O |
| – | – | – | 6.61 | 0.14 | 6.60 | 1 | Cc1cc(C[C@H](NC(=O)c2c(C)cccc2Cl)C(=O)O)ccc1-c1c(C)n(C)c(=O)n(C)c1=O |
| 18.3 | 6 | 2.01 | – | – | – | – | CCOC(=O)[C@H](Cc1ccc(-c2c(C)n(C)c(=O)n(C)c2=O)cc1)NC(=O)c1c(Cl)cccc1Cl |
| – | – | – | 7.20 | 0.8 | 6.91 | 4.8 | CCn1c(C)c(-c2ccc(C[C@H](NC(=O)c3c(Cl)cccc3Cl)C(=O)O)cc2)c(=O)n(CC)c1=O |
| – | – | – | 6.91 | 0.1 | 6.78 | 2.4 | Cc1cccc(Cl)c1C(=O)N[C@@H](Cc1ccc(-c2c(C(F)(F)F)n(C)c(=O)n(C)c2=O)cc1)C(=O)O |
| – | – | – | 5.84 | 0.04 | 5.71 | 0.15 | Cc1c(-c2ccc(C[C@H](NC(=O)c3c(C(C)C)cccc3C(C)C)C(=O)O)cc2)c(=O)n(C)c(=O)n1C |
| – | – | – | 7.09 | 1 | – | – | Cc1cc(C[C@H](NC(=O)c2c(C)cccc2Cl)C(=O)O)ccc1-c1cn(C)c(=O)n(C)c1=O |
| – | – | – | 6.59 | 0.35 | – | – | COc1cccc(Br)c1C(=O)N[C@@H](Cc1ccc(-c2cn(C)c(=O)n(C)c2=O)c(C)c1)C(=O)O |
| – | – | – | 6.67 | 0.13 | 6.25 | 1 | Cc1c(-c2ccc(C[C@H](NC(=O)c3c(Cl)cccc3C(C)C)C(=O)O)cc2)c(=O)n(C)c(=O)n1C |
| 2.9 | 10 | -1.76 | 7.46 | 2.1 | 7.24 | 6.1 | Cc1cccc(Cl)c1C(=O)N[C@@H](Cc1ccc(-c2c(C)n(C)c(=O)n(C)c2=O)cc1)C(=O)O |
| – | – | – | 6.54 | 0.49 | 6.49 | 1 | COCCC1(C(=O)N[C@@H](Cc2ccc(-c3c(C)n(C)c(=O)n(C)c3=O)cc2)C(=O)O)CCCC1 |
| – | – | – | 7.06 | 0.53 | 6.82 | 2.3 | CCc1cccc(Cl)c1C(=O)N[C@@H](Cc1ccc(-c2c(C)n(C)c(=O)n(C)c2=O)cc1)C(=O)O |
| – | – | – | 7.60 | 2 | – | – | Cc1cc(C[C@H](NC(=O)c2c(C)cccc2Br)C(=O)O)ccc1-c1cn(C)c(=O)n(C)c1=O |
| – | – | – | 6.53 | 0.37 | 6.79 | 1.7 | CCn1c(C)c(-c2ccc(C[C@H](NC(=O)c3c(C)cccc3Cl)C(=O)O)cc2)c(=O)n(CC)c1=O |
| 12 | 30 | 1.61 | – | – | – | – | CC(=O)OC(C)OC(=O)[C@H](Cc1ccc(-c2c(C)n(C)c(=O)n(C)c2=O)cc1)NC(=O)c1c(F)cccc1F (some centres undefined) |
| – | – | – | 6.42 | 0.29 | 6.25 | 0.46 | CCn1c(C)c(-c2ccc(C[C@H](NC(=O)C3(CCOC)CCCC3)C(=O)O)cc2)c(=O)n(CC)c1=O |
